In patent publication US20090312433A1, “TREATMENT OF VR1-ANTAGONIST-INDUCED INCREASE IN BODY TEMPERATURE WITH AN ANTIPYRETIC AGENT” (Amgen Inc., priority 2005, published 2009):
Entries after “also recorded” stand apart in the source; their conditions may differ.

Tests used:
rats = assay: Body temperature in rats after TRPV1 antagonist followed by acetaminophen; format: in vivo
Procedure: In this study rats were first treated with vehicle (Oraplus/5% Tween 80) or a TRPV1 antagonist (Compound A; 3 mg/kg, p.o.). Following a 120 min period, separate groups of rats were then administered vehicle (Oraplus/5% Tween 80) or acetaminophen (300 mg/kg, p.o.). Body temperature was then measured for an additional 120 min.

TRPV1 [1] = details: different species; cited from earlier work
TRPV1 [2] = details: cited from earlier work

For `CC(=O)Nc1nc2c(Oc3cc(-c4ccc(C(F)(F)F)cc4NC(=O)OC(C)(C)C)ncn3)cccc2s1` [Compound A, {2-[6-(2-acetylamino-benzothiazol-4-yloxy)-pyrimidin-4-yl]-5-trifluoromethyl-phenyl}-carbamic acid tert-butyl ester], the “body temperature following treatment with TRPV1 antagonist” value (rats; 3 mg/kg, p.o., 120 min period after dosing) was “significant increase in body temperature” and the “body temperature compared to the control group (Veh+Veh)” value (rats; Compound A 3 mg/kg p.o. followed after 120 min by vehicle (Compound A+Veh group), measured for an additional 120 min) was “remained elevated”.

In the case of `CC(=O)Nc1ccc(O)cc1` [acetaminophen], the “body temperature after TRPV1 antagonist followed by acetaminophen” value (rats; Compound A 3 mg/kg p.o., then after 120 min acetaminophen 300 mg/kg p.o. (Compound A+Acet group), measured for an additional 120 min) is reported as “reversed; also recorded: decreased to levels observed in the control group” and the “body temperature, acetaminophen alone” value (rats; vehicle, then after 120 min acetaminophen 300 mg/kg p.o. (Veh+Acet group)) is reported as “decreased”.

In the case of `COc1cc(CNC(=O)CCCC/C=C/C(C)C)ccc1O` [capsaicin], the “hypothermia induced by TRPV1 agonists” value (TRPV1 [1]) is listed as “induce hypothermia” and the “hypothermia in mice lacking TRPV1” value (TRPV1 [2]) is listed as “did not induce hypothermia”.

For `C=C(C)[C@]12C[C@@H](C)[C@@]34O[C@](Cc5ccccc5)(O[C@@H]1[C@@H]3C=C(COC(=O)Cc1ccc(O)c(OC)c1)C[C@]1(O)C(=O)C(C)=C[C@@H]41)O2` [RTX, resiniferatoxin], the “hypothermia induced by TRPV1 agonists” value (TRPV1 [1]) is listed as “induce hypothermia”.
